US11161824B2, “Heterocyclic lipoxin analogs and uses thereof” (University College Dublin, National University of Ireland, …, priority 2016, dated 2021)

Tests used:
NFkB [1] = test: LPS-induced NFkB-driven luciferase activity in THP-1 LUCIA monocytes; assay type: cell-based; conditions: for reduction of LPS-induced NFkB luciferase activity: 30 min pre-treatment, then 24 h with 50 ng/ml LPS, relative to LPS
Method: 1×10^5 THP-1 LUCIA monocytes were pre-treated for 30 min with native LXA4 1 (FIG. 1A), imidazole analogues 9 [(1R)-epimer (FIG. 1B) and (1S)-epimer (FIG. 1C)], vehicle or appropriate controls, at increasing doses ranging from 10^−12 M up to 10^−6 M. 10^8 HKLM was used as positive control for NFkB activation. After 24 h from stimulation with 50 ng/ml of LPS, supernatants were collected and NFkB-driven luciferase was measured. (d) Data are expressed as % Relative Luminescence Unit relative to LPS alone ±SEM (n=3), *=p<0.05, **=p<0.01, ***=p<0.001. Graphs display the statistical analysis of the tested compound vs LPS.
(§1) The experiments were based around a model which utilised 1×10^5/ml THP-1 monocytes stably expressing NFkB luciferase reporter gene (LUCIA).
(§2) Anti-inflammatory activity was assessed by testing 10 analogues (6 quinoxalines & 4 isoquinolines) in presence & absence of lipopolysaccharide (LPS). For each analogue, a dose-response from 10^−12 M up to 10^−6 M was performed. The vehicle control corresponded to 0.1% Ethanol. NFkB activator, Heat-Killed Listeria Monocytogenes (HKLM) (10^7 cells/ml), were used as positive control for luciferase induction. 10^−6 M Dexamethasone (Dex) was used as positive control for luciferase inhibition. […] Benzo-lipoxin A4 (BLX) was used as positive control for LXA4 analogues.
A 2-tailed, assuming unequal variance T-test analysis was performed on three independent experiments for each assay. P-values were considered significant when p<0.05. If p<0.05, then * or $; if p<0.01, then ** or $$ or ##; if p<0.001, then *** or $$$ or ###.
Cells were seeded in 96-well plates and pre-treated with increasing doses of LXA4, analogues or controls for 30 min, followed by 24 h of co-incubation with 50 ng/ml LPS. […] (*=statistical analysis vs LPS; $=statistical analysis vs LXA4)

NFkB [2] = test: NFkB-driven luciferase activity in resting conditions (absence of LPS) in THP-1 LUCIA monocytes; assay type: cell-based; conditions: 10^-12 M to 10^-6 M, 24 h
Method: 1×10^5 THP-1 LUCIA monocytes were treated for 30 min with native (a) LXA4 1, its stable imidazole-lipoxin analogues (1R)-9 and (1S)-9, vehicle or appropriate controls, at increasing doses ranging from 10^−12 M up to 10^−6 M. After 24 h, supernatants were collected and NFkB-driven luciferase was measured. Data are expressed as % Relative Luminescence Unit relative to LPS alone ±SEM (n=3).
as §1, §2

[3] = tested on: carrageenan-induced paw swelling; test: Murine carrageenan-induced paw swelling; assay type: in vivo, C57Bl/6 mice; conditions: 45 ng/mouse i.p. 30 mins before intrapaw 1% carrageenan; 4-72 h
Method: CT4-43 attenuates carageenan-induced paw swelling—Mice [male C57Bl/6] were administered vehicle [0.01% EtOH] or CT4-4 [45 ng/mouse i.p] 30 mins before intrapaw injection of 1% carageenan. Paw swelling was monitored over time [4-72 h] using an external lever gauge [Kroeplin]. Data are presented as mean+/−SEM, n=3 mice/treatment group.

Th1 cytokine release = test: LPS-induced Th1 cytokine release from THP-1 LUCIA monocytes; assay type: cell-based; conditions: 10^-11, 10^-9 or 10^-7 M; 50 ng/ml LPS 24 h; IL1β, IL6, IL12p70, IFNγ, TNF-α as per figure
Method: FIG. 2A-2E are graphs showing imidazole-lipoxin analogues (1R)-9 and (1S)-9 reduce LPS-induced Th1 cytokine release. 1×10^5 THP-1 LUCIA monocytes were pre-treated for 30 min with […], 10^−9 M or 10^−7 M of LXA4 1 and imidazole-lipoxin analogues (1R)-9 and (1S)-9, vehicle or appropriate controls. After 24 h from stimulation with 50 ng/ml of LPS, supernatants were collected and […] (FIG. 2A), IL6 (FIG. 2B), IL12p70 (FIG. 2C), IFNγ (FIG. 2D), and TNF-α (FIG. 2E) levels were measured. Data are expressed as % cytokine secretion relative to LPS alone ±SEM (n=3), *=p<0.05, **=p<0.01, ***=p<0.001.
FIG. 6A-6C are graphs showing that quinoxaline-lipoxin analogue (1R)-CT-4-43 inhibits LPS-induced Th1 cytokine release. 1×10^5 THP-1 LUCIA monocytes were pre-treated for 30 min with […], 10^−9 M or 10^−7 M of LXA4 and quinoxaline-lipoxin analogue (1R)-CT-4-43, vehicle or appropriate controls. After 24 h from stimulation with 50 ng/ml of LPS, supernatants were collected and IL13 (FIG. 6A), IL6 (FIG. 6B), and IFNγ (FIG. 6C) levels were measured. Data are expressed as % cytokine secretion relative to LPS alone ±SEM (n=3), *=p<0.05, **=p<0.01, ***=p<0.001.
FIG. 9A-9C are graphs showing that the isoquinoline-lipoxin analogue RB3 inhibit LPS-induced Th1 cytokine release. 1×10^5 THP-1 LUCIA monocytes were pre-treated for 30 min with 10^−11 M, 10^−9 M or 10^−7 M of LXA4 and isoquinoline-lipoxin analogue (1R)-RB3, vehicle or appropriate controls. After 24 h from stimulation with 50 ng/ml of LPS, supernatants were collected and IL1β(FIG. 9A), IL6 (FIG. 9B), and IL12p70 (FIG. 9C) levels were measured. Data are expressed as % cytokine secretion relative to LPS alone ±SEM (n=3), *=p<0.05, **=p<0.01, ***=p<0.001.

THP-1 monocytes = tested on: THP-1 monocytes
Method: Cytotoxicity Prior to functional assay testing, all compounds were screened for any cytotoxic effect, in the presence & absence of LPS, measuring the level of lactate dehydrogenase (LDH) released at A490nm.
The cells were treated as described above and, after 24 h, supernatant was collected and LDH activity assayed.

| SMILES | reduction of LPS-induced NFkB luciferase activity (NFkB [1]; 1 nM) [%] | reduction of LPS-induced NFkB luciferase activity (NFkB [1]; 10 nM) [%] | effect on LPS-induced NFkB-driven luciferase activity (in words) (NFkB [1]; doses 10^-12 M to 10^-6 M, 50 ng/ml LPS, 24 h) | potency in reducing LPS-induced NFkB activity, comparison in words (NFkB [1]; versus LXA4 or other analogues) | NFkB-driven luciferase activity in resting conditions (in words) (NFkB [2]) | effect on carrageenan-induced paw swelling (in words) [3] | effect on LPS-induced Th1 cytokine release (in words) (Th1 cytokine release) | effect on LPS-induced LDH activity (cytotoxicity, in words) (THP-1 monocytes) |
| --- | --- | --- | --- | --- | --- | --- | --- | --- |
| CCCCC[C@@H](O)c1nc2ccccc2nc1/C=C/[C@@H](O)[C@@H](O)CCCC(=O)OC [(1R)-CT4-43, Methyl (5S,6R,E)-5,6-dihydroxy-8-(3-((R)-1-hydroxyhexyl)quinoxalin-2-yl)oct-7-enoate] | 38.2±8.2 | 34.8±4.2 | attenuating | significantly more potent than LXA4 | does not elicit | attenuates | inhibits | – |
| CCCCC[C@@H](O)c1ccccc1/C=C/[C@@H](O)[C@@H](O)CCCC(=O)OC [Blx] | – | – | – | – | – | – | – | significantly (p<0.001) decreased |
